Test results from patent publication US9040525B2, “Cyclic amide derivative” (MOCHIDA PHARMACEUTICAL CO., LTD., priority 2010, dated 2015).

Biological target: T1, GPR40 of human origin (Homo sapiens, UniProt O14842)
T1 construct: expressed in transfected cells
Assay: Agonist action on GPR40 of human origin (Ca2+ fluorescence, CHO cell strain stably expressing GPR40)
Format: cell-based
Details: fluctuation of Ca2+ concentration
Protocol: A CHO cell strain stably expressing GPR40 of human origin was used to determine the agonist action of a title compound. This cell strain was seeded in a clear bottom 96 well plate at 2×10^4 cells/100 μL/well. The cell strain was cultured in a CO2 incubator overnight using a Ham's F-12 medium containing a 10% fetal bovine serum, 100 U/mL penicillin, 0.1 mg/mL streptomycin, and 400 μg/mL. Geneticin. Calcium 4 Assay Kit (Molecular Devices) was used as a fluorescent calcium indicator. One mL of 77 mg/mL probenecid (Invitrogen) was added to 100 mL of a calcium indicator solution to prepare a solution (loading solution) mixed with a 20 mM HEPES-containing Hanks' balanced salt solution (HBSS) in equal proportions. To the cells from which the culture solution was removed, 200 μL of the loading solution was added, and the cells were cultured in a CO2 incubator for 1 hour. The title compound was diluted with a 20 mM HEPES-containing HBSS and was added to the cells by 50 μL, and the fluctuation of the Ca^2+concentration was measured by an intracellular ion analyzer. The EC50 value of the title compound was calculated using the dose-response curve of fluorescence intensity variation.

T1 sequence (O14842 whole entry): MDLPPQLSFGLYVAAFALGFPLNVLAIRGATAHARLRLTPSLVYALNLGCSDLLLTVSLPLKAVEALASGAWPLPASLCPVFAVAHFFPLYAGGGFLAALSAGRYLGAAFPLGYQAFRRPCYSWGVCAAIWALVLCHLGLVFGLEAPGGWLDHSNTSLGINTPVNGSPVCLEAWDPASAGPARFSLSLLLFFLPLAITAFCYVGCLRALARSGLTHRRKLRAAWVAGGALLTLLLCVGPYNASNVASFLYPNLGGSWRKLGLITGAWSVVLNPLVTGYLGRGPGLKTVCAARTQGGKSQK

O=C1CC(c2ccc(O[C@@H]3CCc4c(Oc5ccccc5)cccc43)cc2)[S+]([O-])N1 (stereo partly drawn) [Example 27, 5-(4-(((R)-4-phenoxy-2,3-dihydro-1H-inden-1-yl)oxy)phenyl)-1-oxo-1,2-thiazolidin-3-one]
EC50: < 300 nM

O=C1CC(c2ccc(OC3COc4c3cccc4C(F)(F)F)cc2)[S+]([O-])N1 (centres unmarked) [Example 28]
EC50: 300 to 3000 nM

O=C1CC(c2ccc(O[C@@H]3CCc4c(Br)cccc43)cc2)[S+]([O-])N1 (stereo partly drawn) [Example 29, 5-(4-(((R)-4-bromo-2,3-dihydro-1H-inden-1-yl)oxy)phenyl)-1-oxo-1,2-thiazolidin-3-one]
EC50: < 300 nM

Cc1cc(OCCCS(C)(=O)=O)cc(C)c1-c1cccc(COc2ccc(C3CC(=O)NS(=O)(=O)C3)cc2)c1 (centres unmarked) [Example 31, 5-[4-[[3-[2,6-dimethyl 4-(3-methylsulfonylpropoxy)phenyl]phenyl]methoxy]phenyl]-1,1-dioxo-1,2-thiazinan-3-one]
EC50: < 300 nM

N#Cc1ccc(Oc2cccc3c2CC[C@H]3Oc2ccc(C3CC(=O)NS(=O)(=O)C3)cc2)cc1 (stereo partly drawn) [Example 32, 4-(((1R)-1-(4-(1,1-dioxo-3-oxo-1,2-thiazinan-5-yl)phenoxy)-2,3-dihydro-1H-inden-4-yl)oxy)benzonitrile]
EC50: < 300 nM

O=C1CC(c2ccc(O[C@@H]3CCc4c(Br)cccc43)cc2)CS(=O)(=O)N1 (stereo partly drawn) [Example 33, 5-(4-(((R)-4-bromo-2,3-dihydro-1H-inden-1-yl)oxy)phenyl)-1,1-dioxo-1,2-thiazinan-3-one]
EC50: < 300 nM

Cc1cc(OCCC(C)(C)O)cc(C)c1-c1cccc2c1CC[C@H]2Oc1ccc(C2CC(=O)NS(=O)(=O)C2)cc1 (stereo partly drawn) [Example 34, 5-(4-(((R)-4-(4-(3-hydroxy-3-methylbutoxy)-2,6-dimethylphenyl)-2,3-dihydro-1H-inden-1-yl)oxy)phenyl)-1,1-dioxo-1,2-thiazinan-3-one]
EC50: < 300 nM

Cc1cc(OCCC(C)(C)O)nc(C)c1-c1cccc(COc2ccc(C3CC(=O)NS(=O)(=O)C3)cc2)c1 (centres unmarked) [Example 35, 5-[4-[[3-[6-(3-hydroxy-3-methylbutoxy)-2,4-dimethylpyridin-3-yl]phenyl]methoxy]phenyl]-1,1-dioxo-1,2-thiazinan-3-one]
EC50: < 300 nM
